From PubChem BioAssay AID192 (DTP/NCI, 2004)
“And” between values parts separate entries of the source, which are not always exact repeats. Identical values can stand only once. Inconclusive results and toxic doses are left out.

Test system: BDF1 mice, B16 melanoma ip, median survival T/C
Assay: NCI In Vivo Anticancer Drug Screen. Data for tumor model B16 Melanoma (intraperitoneal) in B6D2F1 (BDF1) mice
Conditions: endpoint: median survival time, higher = longer survival
How it was run: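 Survival or tumor size is measured after treatment of tumor-bearing mice and normalised to the vehicle-treated control group.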

[1] = dose: 3.12 mg/kg/injection, schedule: Q01DX009 (ip), vehicle: saline
[2] = dose: 6.25 mg/kg/injection, schedule: Q01DX009 (ip), vehicle: saline
[3] = dose: 12.5 mg/kg/injection, schedule: Q01DX009 (ip), vehicle: saline
[4] = dose: 25.0 mg/kg/injection, schedule: Q01DX009 (ip), vehicle: saline
[5] = dose: 50.0 mg/kg/injection, schedule: Q01DX009 (ip), vehicle: saline
[6] = dose: 12.5 mg/kg/injection, schedule: Q01DX009 (ip), vehicle: Klucel (hydroxypropylcellulose) (HPC)
[7] = dose: 25.0 mg/kg/injection, schedule: Q01DX009 (ip), vehicle: Klucel (hydroxypropylcellulose) (HPC)
[8] = dose: 50.0 mg/kg/injection, schedule: Q01DX009 (ip), vehicle: Klucel (hydroxypropylcellulose) (HPC)
[9] = dose: 100.0 mg/kg/injection, schedule: Q01DX009 (ip), vehicle: saline
[10] = dose: 200.0 mg/kg/injection, schedule: Q01DX009 (ip), vehicle: saline
[11] = dose: 100.0 mg/kg/injection, schedule: Q04DX003 (ip), vehicle: saline
[12] = dose: 200.0 mg/kg/injection, schedule: Q04DX003 (ip), vehicle: saline
[13] = dose: 400.0 mg/kg/injection, schedule: Q04DX003 (ip), vehicle: saline

Compound: O=[N+]([O-])/C(=C/c1ccccc1)c1ccccc1
- T/C (dose: 6.25 mg/kg/injection, schedule: Q01DX009 (ip), vehicle: saline with Tween-80): 104 % of control
- T/C (dose: 12.5 mg/kg/injection, schedule: Q01DX009 (ip), vehicle: saline with Tween-80): 95 % of control
- T/C (dose: 25.0 mg/kg/injection, schedule: Q01DX009 (ip), vehicle: saline with Tween-80): 112 % of control

Compound: COC(=O)C(c1ccccc1)C1CCCCN1 (configuration not stated)
- T/C [1]: 97 % of control
- T/C [2]: 100 % of control
- T/C [3]: 88 % of control
- T/C [4]: 88 % of control
- T/C [5]: 97 % of control

Compound: Oc1ccc2ccccc2c1C1=NNc2n[nH]c(=S)n2N1
- T/C [6]: 100 % of control
- T/C [7]: 103 % of control
- T/C [8]: 112 % of control

Compound: CCCC(OC(C)=O)C(Cl)(Cl)Cl (configuration not stated)
- T/C [7]: 90 % of control
- T/C [8]: 100 % of control

Compound: O=C(Oc1cccc(OC(=O)c2ccc(Cl)cc2)c1)c1ccc(Cl)cc1
- T/C (dose: 100.0 mg/kg/injection, schedule: Q01DX009 (ip), vehicle: Klucel (hydroxypropylcellulose) (HPC)): 89 % of control
- T/C (dose: 200.0 mg/kg/injection, schedule: Q01DX009 (ip), vehicle: Klucel (hydroxypropylcellulose) (HPC)): 89 % of control

Compound: O=C(O)CCNCc1ccccc1
- T/C [3]: 111 % of control
- T/C [5]: 102 % of control
- T/C [9]: 106 % of control
- T/C [10]: 111 % of control

Compound: C1OC1CN1CCN(CC2CO2)CC1 (configuration not stated)
- T/C (dose: 8.0 mg/kg/injection, schedule: Q01DX009 (ip), vehicle: saline with Tween-80): 121 % of control
- T/C (dose: 16.0 mg/kg/injection, schedule: Q01DX009 (ip), vehicle: saline with Tween-80): 119 % of control

Compound: Nc1nc2c(ncn2C2OC(CO)C(O)C2O)c(=O)[nH]1.Nc1nc2c(ncn2C2OC(CO)C(O)C2O)c(=O)[nH]1.[NH2-].[NH2-].[Pt+2] (configuration not stated)
- T/C (dose: 6.25 mg/kg/injection, schedule: Q01DX009 (ip), vehicle: water): 100 % of control and 108 % of control
- T/C (dose: 12.5 mg/kg/injection, schedule: Q01DX009 (ip), vehicle: water): 98 % of control and 114 % of control
- T/C (dose: 25.0 mg/kg/injection, schedule: Q01DX009 (ip), vehicle: water): 117 % of control
- T/C (dose: 50.0 mg/kg/injection, schedule: Q01DX009 (ip), vehicle: water): 109 % of control
- T/C (dose: 100.0 mg/kg/injection, schedule: Q01DX009 (ip), vehicle: water): 160 % of control
- T/C (dose: 200.0 mg/kg/injection, schedule: Q01DX009 (ip), vehicle: water): 151 % of control and 170 % of control

Compound: CN(C)CCCC1(C#N)c2ccccc2CCc2ccccc21
- T/C [1]: 110 % of control
- T/C [2]: 97 % of control
- T/C [3]: 100 % of control
- T/C [4]: 110 % of control

Compound: OCC1OC(n2cnc3c(SCc4ccccc4)ncnc32)C(O)C1O (configuration not stated)
- T/C (dose: 37.5 mg/kg/injection, schedule: Q01DX009 (ip), vehicle: saline with Tween-80): 121 % of control

Compound: CC[C@@H](C(=O)[C@@H](C)[C@@H](O)[C@H](C)CCc1ccc(C)c(O)c1C(=O)O)[C@H]1O[C@](CC)([C@H]2CC[C@](O)(CC)[C@H](C)O2)C[C@@H]1C
- T/C (dose: 1.56 mg/kg/injection, schedule: Q01DX009 (ip), vehicle: Klucel (hydroxypropylcellulose) (HPC)): 111 % of control
- T/C (dose: 3.12 mg/kg/injection, schedule: Q01DX009 (ip), vehicle: Klucel (hydroxypropylcellulose) (HPC)): 102 % of control
- T/C (dose: 6.25 mg/kg/injection, schedule: Q01DX009 (ip), vehicle: Klucel (hydroxypropylcellulose) (HPC)): 111 % of control

Compound: NC(CSCCc1ccccn1)C(=O)O (configuration not stated)
- T/C [4]: 100 % of control
- T/C [5]: 100 % of control
- T/C [9]: 110 % of control
- T/C [11]: 104 % of control
- T/C [12]: 104 % of control
- T/C [13]: 104 % of control

Compound: Cc1ncc(CNC(=O)N(CCCl)N=O)c(N)n1
- T/C (dose: 1.56 mg/kg/injection, schedule: Q01DX009 (ip), vehicle: suspension in saline): 155 % of control
- T/C (dose: 3.12 mg/kg/injection, schedule: Q01DX009 (ip), vehicle: suspension in saline): 193 % of control
- T/C (dose: 6.25 mg/kg/injection, schedule: Q01DX009 (ip), vehicle: suspension in saline): 279 % of control
- T/C [6]: 164 % of control
- T/C (dose: 12.5 mg/kg/injection, schedule: Q01DX009 (ip), vehicle: suspension in saline): 322 % of control

Compound: CC(C)C1NC(=O)NC1=O (configuration not stated)
- T/C [9]: 100 % of control
- T/C [11]: 100 % of control
- T/C [10]: 95 % of control
- T/C [12]: 106 % of control
- T/C (dose: 400.0 mg/kg/injection, schedule: Q01DX009 (ip), vehicle: saline): 100 % of control
- T/C [13]: 97 % of control
